According to patent US8710097B2, “Flavonoid dimers and methods of making and using such” (The Hong Kong Polytechnic University, priority 2006, dated 2014):
Where two headings read alike, the source gives them in different places.

How the values were obtained:
[1] = test system: SSG-resistant L. donovani Ld39 promastigotes; assay: microbe, parasite or virus in culture; type: cell-based, Leishmania donovani; details: for SSG resistance modulating activity: Ld39, FIG. 14B; for IC50: Leishmania donovani, 72 h, read-out: IC50(μM) of synthetic flavonoid, Ld39
Experimental: (§1) Cell lines and Cell Culture. Promastigotes of Leishmania enriettii (LePentR50, Le wild type, LeMDR1 −/− and LeMDR1-overexpressed LeV160 mutants) and Leishmania donovani (LdAG83, Ld2001 and Ld39) were employed in this study. The former is a natural infective strain of guinea pig and the latter is a clinical strain, which may cause visceral leishmaniasis in human. Both strains were cultured in Schneider's Drosophila Medium (Invitrogen), pH 6.9 supplemented with 10% (v/v) heat inactivated fetal calf serum (Hyclone) with 4 mM glutamine (Sigma) and 25 μg/mL gentamicin solution (Invitrogen), at 27° C. for 4 days (Cloning and functional analysis of an extrachromosomally amplified multidrug resistance-like gene in Leishmania enriettii. Mol. Biochem. Parasitol 1993, 60, 195-208). […]
(§2) The viability of promastigotes was determined by the Cell Titer 96® Aqueous Assay (Promega) that employs a tetrazolium compound (MTS) and electron coupling reagent, phenazine methosulfate (PMS). Promastigotes were seeded into 96-well flat bottom microtiter plate at 1×10^5 cells per well in a final volume of 100 μL medium. To determine the cytotoxic effects of flavonoid dimers to the parasites, various concentrations of flavonoid dimers were added to the promastigotes. To determine the reversal effects of flavonoid dimers with different spacer lengths, various concentrations of antileishmanial drugs, one of pentamidine or SSG, vinblastine and puromycin was added to the wells with or without flavonoid dimers. The parasites were incubated at 27° C. for 72 hrs. Each concentration of antileishmanials with or without the flavonoid dimers was tested in triplicates in each experiment. A 2 mg/mL MTS and 0.92 mg/mL PMS were mixed at a ratio of 20:1 (MTS: PMS). After 72-hr incubation, 10 μL of MTS:PMS mixture was added into each well of microtiter plate. The plate was then incubated at 27° C. for 4 hrs for color development. After 4 hrs of incubation, the OD values were determined at 490 nm using automatic microtiter plate reader (Bio-Rad).

[2] = test system: wild type L. donovani LdAG83 promastigotes; assay: Leishmania cell viability (MTS) assay; type: cell-based, Leishmania donovani; details: Leishmania donovani, read-out: IC50(μM) of synthetic flavonoid, LdAG83
Experimental: as §1, §2

[3] = test system: pentamidine-resistant L. enriettii LePentR50 promastigotes; assay: microbe, parasite or virus in culture; details: for IC50: Leishmania enriettii, 72 h, read-out: IC50(μM) of synthetic flavonoid, LePentR50, cytotoxicity of compound alone, 72 hrs; for pentamidine sensitization: LePentR50, FIG. 18A
Experimental: Cell lines and Cell Culture. Promastigotes of Leishmania enriettii (LePentR50, Le wild type, LeMDR1 −/− and LeMDR1-overexpressed LeV160 mutants) and Leishmania donovani (LdAG83, Ld2001 and Ld39) were employed in this study. The former is a natural infective strain of guinea pig and the latter is a clinical strain, which may cause visceral leishmaniasis in human. Both strains were cultured in Schneider's Drosophila Medium (Invitrogen), pH 6.9 supplemented with 10% (v/v) heat inactivated fetal calf serum (Hyclone) with 4 mM glutamine (Sigma) and 25 μg/mL gentamicin solution (Invitrogen), at 27° C. for 4 days (Cloning and functional analysis of an extrachromosomally amplified multidrug resistance-like gene in Leishmania enriettii. Mol. Biochem. Parasitol 1993, 60, 195-208).
Promastigotes of LeV160 were culture in the presence of 160 μg/mL vinblastine. No pentamidine and vinblastine (Sigma) was added to the Le wild type and LeMDR1 −/− mutant.
as §2

MDA435/LCC6 MDR cells = assay: cells; details: for doxorubicin sensitization / reversing effect on taxol resistance: MDA435/LCC6 MDR; for doxorubicin sensitization: dimers; for reversing effect on taxol resistance: dimers at 5 μM; for reversing activity compared with verapamil: LCC6MDR, taxol, 5 μM
Experimental: MDA435/LCC6 and P388 (both parent and MDR subtype) were maintained in DMEM and RPMI 1640 culture medium supplemented with 10% FBS, respectively. RPMI 1640 media also contained 100 units/ml penicillin and 100 μg/ml streptomycin. Cells were cultured at 37° C. in a humidified atmosphere with 5% CO2. A solution of 0.05% trypsin-EDTA was used to detach the MDA435/LCC6 (both wild type and MDR subtype) cells.
Cell proliferation assay. MDA435/LCC6 and P388 (both parent and MDR subtype) cells were seeded at 2000 and 5000 cells per well, respectively, in 96-well plates. Varying concentrations of anticancer drugs (Doxorubicin, Daunorubicin, Vincristine, Vinblastine, taxol, Mitoxantrone) with or without the flavonoid dimers were added in a final volume of 200 μl and cells were grown for 4 and 3 days for MDA435/LCC6 and P388 (both parent and MDR subtype) cells, respectively. For MDA435/LCC6 (both parent and MDR subtype), the corresponding drugs were added after cell attachment (24 hr incubation). To measure cell proliferation, the cell Titer 960 Aqueous Assay (Promega) was used according to the manufacturer's instructions. Briefly, MTS (2 mg/ml) and PMS (0.92 mg/ml) were mixed in a ratio of 20:1. 30 μl MTS/PMS mixture was added into each well and incubated for 2 hours at 37° C. Optical absorbance at 490 nm was then recorded using an ELISA microtiter plate reader (Bio-Rad). Each experiment was done at least in triplicate and repeated twice. Cytotoxicity of the anticancer drugs was expressed as the fraction of the cells survived relative to the untreated DMSO (0.05%) solvent controls.
MDA435/LCC6 is an estrogen-independent human breast cancer cell line. Its MDR subtype (MDA435/LCC6 MDR) was generated by transducing a retroviral vector directing the constitutive expression of the human MDR1 cDNA, producing a cell line with a classical MDR1 resistance pattern (MDA435/LCC6 and MDA435/LCC6MDR1: ascites models of human breast cancer. Br J Cancer 1996, 73, 154-161). The ability of the apigenin dimers of this invention to reverse taxol resistance in MDA435/LCC6 MDR cells were tested. […] Apigenin monomers 10a and 10b at 10 μM were used as the negative controls.

P388/ADR cells = assay: Doxorubicin accumulation; type: cell-based, murine; details: monomer 10b at double concentration of the dimers, FIG. 11A
Experimental: For P388 (both parent and MDR subtype) cells, 1 ml (10^5 cells) confluent cells were aliquot into Eppendorf tube and pre-incubated with flavone dimers for 30 min at 37° C. Doxorubicin (final concentration of 10 μM) was then added and incubated for 2 h at 37° C. at a final concentration of 10 μM. The cell pellets were washed 3 times with cold PBS by using an Eppendorf micro-centrifuge and lysed with 0.3N HCL in 50% ethanol, and sonicated for 30s. After centrifugation at 10000 rpm/min for 3 min, the supernatant was saved. The fluorescence of doxorubicin was measured using a spectrofluorometer (λexcite=470 nm, λemit=585 nm).

O=c1cc(-c2ccc(O)cc2)oc2cc(O)cc(O)c12 [Apigenin, reference compound]
SSG resistance modulating activity ([1]; 12 μM): did not give any significant modulating activity
IC50 [1]: 43 ± 5.9 µM
IC50 ([2]; cytotoxicity of compound alone, 72 hrs): 32 ± 4.1 µM
IC50 [3]: 55 ± 2.6 µM

O=c1cc(-c2ccc(OCCOc3ccc(-c4cc(=O)c5c(O)cc(O)cc5o4)cc3)cc2)oc2cc(O)cc(O)c12 [Compound 9a, 1,4-Bis[4′-((5,7-dihydroxy)-4H-chromen-4-on-2-yl)phenyl]-1,4-dioxabutane]
SSG resistance modulating activity ([1]; dimers at 6 μM): did not show substantial SSG resistance modulating activity
IC50 [1]: 117 ± 10 µM
doxorubicin sensitization (MDA435/LCC6 MDR cells): very little or no doxorubicin sensitization
reversing effect on taxol resistance (MDA435/LCC6 MDR cells): little or no reversing effect
IC50 ([2]; 72 h): 95 ± 3.2 µM
IC50 [3]: > 200 µM
activity on doxorubicin accumulation (P388/ADR cells): little or no activity at all

O=c1cc(-c2ccc(OCCOCCOCCOCCOCCOc3ccc(-c4cc(=O)c5c(O)cc(O)cc5o4)cc3)cc2)oc2cc(O)cc(O)c12 [Compound 9e, 1,16-Bis[4′-((5,7-dihydroxy)-4H-chromen-4-on-2-yl)phenyl]-1,4,7,10,13,16-hexaoxahexadecane]
IC50 [1]: 42 ± 2.3 µM
doxorubicin sensitization (MDA435/LCC6 MDR cells): very little or no doxorubicin sensitization
reversing effect on taxol resistance (MDA435/LCC6 MDR cells): little or no reversing effect
IC50 ([2]; 72 h): 30 ± 1.2 µM
IC50 [3]: 70 ± 3 µM
activity on doxorubicin accumulation (P388/ADR cells): little or no activity at all

O=c1cc(-c2ccc(OCCOCCOCCOCCOCCOCCOc3ccc(-c4cc(=O)c5c(O)cc(O)cc5o4)cc3)cc2)oc2cc(O)cc(O)c12 [Compound 9f, 1,19-Bis[4′-((5,7-dihydroxy)-4H-chromen-4-on-2-yl)phenyl]-1,4,7,10,13,16,19-heptaoxanonadecane]
IC50 [1]: 13 ± 0.6 µM
doxorubicin sensitization (MDA435/LCC6 MDR cells): very little or no doxorubicin sensitization
reversing effect on taxol resistance (MDA435/LCC6 MDR cells): little or no reversing effect
IC50 ([2]; 72 h): 11 ± 2 µM
IC50 [3]: 40 ± 5.3 µM

O=c1cc(-c2ccc(OCCOCCOCCOCCOCCOCCOCCOCCOCCOc3ccc(-c4cc(=O)c5c(O)cc(O)cc5o4)cc3)cc2)oc2cc(O)cc(O)c12 [Compound 9i, 1,28-Bis[4′-((5,7-dihydroxy)-4H-chromen-4-on-2-yl)phenyl]-1,4,7,10,13,16,19,22,25,28-decaoxaoctacosane]
IC50 [1]: 14 ± 0.1 µM
IC50 ([2]; 72 h): 10 ± 0.3 µM

O=c1cc(-c2ccc(OCCOCCOCCOCCOc3ccc(-c4cc(=O)c5ccccc5o4)cc3)cc2)oc2ccccc12 [Compound 35a, 1,13-Bis[4′-(4H-chromen-4-on-2-yl)phenyl]-1,4,7,10,13-pentaoxamidecane]
reversing activity compared with verapamil (MDA435/LCC6 MDR cells): stronger reversing activity than verapamil

O=c1cc(-c2ccc(OCCOCCOCCOCCOc3ccc(-c4cc(=O)c5ccc(F)cc5o4)cc3)cc2)oc2cc(F)ccc12 [Compound 35b, 1,13-Bis[4′-(7-fluoro-4H-chromen-4-on-2-yl)phenyl]-1,4,7,10,13-pentaoxamidecane]
reversing activity compared with verapamil (MDA435/LCC6 MDR cells): stronger reversing activity than verapamil

O=c1cc(-c2ccc(OCCOCCOCCOCCOc3ccc(-c4cc(=O)c5cc(Cl)cc(Cl)c5o4)cc3)cc2)oc2c(Cl)cc(Cl)cc12 [Compound 35f, 1,13-Bis[4′-(6,8-dichloro-4H-chromen-4-on-2-yl)phenyl]-1,4,7,10,13-pentaoxamidecane]
reversing activity compared with verapamil (MDA435/LCC6 MDR cells): stronger reversing activity than verapamil

Cc1ccc2c(=O)cc(-c3ccc(OCCOCCOCCOCCOc4ccc(-c5cc(=O)c6ccc(C)cc6o5)cc4)cc3)oc2c1 [Compound 35g, 1,13-Bis[4′-(7-methyl-4H-chromen-4-on-2-yl)phenyl]-1,4,7,10,13-pentaoxamidecane]
reversing activity compared with verapamil (MDA435/LCC6 MDR cells): stronger reversing activity than verapamil

Cc1ccc2oc(-c3ccc(OCCOCCOCCOCCOc4ccc(-c5cc(=O)c6cc(C)ccc6o5)cc4)cc3)cc(=O)c2c1 [Compound 35h, 1,13-Bis[4′-(6-methyl-4H-chromen-4-on-2-yl)phenyl]-1,4,7,10,13-pentaoxamidecane]
reversing activity compared with verapamil (MDA435/LCC6 MDR cells): stronger reversing activity than verapamil

CCN(CC)CCCC(C)Nc1c2ccc(Cl)cc2nc2ccc(OC)cc12 (stereo not drawn) [quinacrine, reference compound]
pentamidine sensitization [3]: ~4.5 fold

C=C[C@H]1C[N@@]2CC[C@H]1C[C@@H]2[C@@H](O)c1ccnc2ccc(OC)cc12 [quinidine, reference compound]
pentamidine sensitization [3]: less than half-fold sensitization

C=C[C@H]1C[N@@]2CC[C@H]1C[C@H]2[C@H](O)c1ccnc2ccc(OC)cc12 [quinine, reference compound]
pentamidine sensitization [3]: less than half-fold sensitization

COC(=O)[C@H]1[C@H]2C[C@@H]3c4[nH]c5cc(OC)ccc5c4CCN3C[C@H]2C[C@@H](OC(=O)c2cc(OC)c(OC)c(OC)c2)[C@@H]1OC [reserpine, reference compound]
pentamidine sensitization [3]: ~3.2 fold
